# Source: patent US20220202835A1, “INJECTABLE CLORSULON COMPOSITIONS, METHODS AND USES THEREOF” (Boehringer Ingelheim Animal Health USA Inc., priority 2019, published 2022)
# Key:
# [1] = Study 2: clorsulon plasma pharmacokinetics in cattle (LC-MS); type: in vivo; details: for Maximum plasma concentrations: cattle
# Experimental: Whole blood samples for analysis of plasma for analysis of clorsulon were collected from the jugular vein. Samples were collected in ˜7.5 mL lithium heparinized tubes for plasma preparation once prior to treatment on Day-2±1. Thereafter, blood samples were collected according to the Schedule of Operations (Table 3). The time of blood sampling was recorded, and care was taken to avoid cross-contamination of samples during sample collection, storage, and processing. Plasma was recovered from each sample, aliquoted (two aliquots) and stored frozen (at or below −20° C.) until required for assays. The cryo-tubes were labeled with Study Number, type of sample, date, Study Day/time of sampling, and animal ID.
# One aliquot with plasma was used for analysis for clorsulon concentrations using currently High Performance Liquid Chromatography-Mass Spectrometry (LC-MS) methodology.
# Plasma samples were assayed for clorsulon.
# If quantifiable plasma concentrations were determined for an animal, pharmacokinetic analysis was performed as described below. Clorsulon plasma concentrations were determined for an animal at each sampling time, when appropriate. […] The mean concentration-time profiles will be obtained by averaging the concentrations at each sampling time point for all treated animals.
# The therapeutic efficacy and pharmacokinetic parameters of clorsulon were evaluated when administered subcutaneously as 30% (w/v) clorsulon formulation to cattle experimentally infected with liver flukes (Fasciola hepatica). This study differs from Study Number 1 in that there is no administration of 10% (w/v) clorsulon and only immature (four week old) F. hepatica flukes were used.
# [2] = test system: Fasciola hepatica; assay: Study 1: efficacy against induced Fasciola hepatica infection in cattle (fluke counts at necropsy); details: subcutaneously to cattle at 6 and 8 mg/kg bodyweight as a 30% w/v solution
# [3] = test system: Fasciola hepatica; assay: Study 2: efficacy against four week old Fasciola hepatica in cattle
smiles,measurement,setting,value
"Nc1cc(C(Cl)=C(Cl)Cl)c(S(N)(=O)=O)cc1S(N)(=O)=O [clorsulon, 4-amino-6-(1,2,2-trichloroethenyl)benzene-1,3-disulfonamide]",Maximum plasma concentrations,"[1]; Group 2: 30% w/v solution, 8 mg clorsulon/kg SC",5740 ± 1160 ng/mL
same,Maximum plasma concentrations,"[1]; Group 3: 30% w/v solution, 6 mg clorsulon/kg SC",4430 ± 988 ng/mL
same,Maximum plasma concentrations,"[1]; Group 4: 30% w/v solution, 4 mg clorsulon/kg SC",3140 ± 530 ng/mL
same,time at which maximum plasma concentrations were reached,"[1]; Groups 2-4 (4, 6, 8 mg/kg SC), 12 out of 18 animals",≤ 12 h
same,efficacy against early immature (four and six week old) F. hepatica,[2],98-100%
same,Eff (%) against Fasciola hepatica,"[3]; Group 2: 30% w/v solution, 8 mg/kg subcutaneously once on Day 0 (4 week old flukes)",99.6%
same,Eff (%) against Fasciola hepatica,"[3]; Group 3: 30% w/v solution, 6 mg/kg subcutaneously once on Day 0 (4 week old flukes)",99.9%
same,Eff (%) against Fasciola hepatica,"[3]; Group 4: 30% w/v solution, 4 mg/kg subcutaneously once on Day 0 (4 week old flukes)",92.9%
